Data on 14 molecules can be found in patent US20100093692A1, “PIPERIDINYL-PIPERIDINE AND PIPERAZINYL-PIPERIDINE FOR USE IN THE TREATMENT OF DIABETES OR PAIN” (Schering Corporation Sechering-Plough Corporation, priority 2007, published 2010).

Series [1] deals with T1, H3 receptors (Cavia porcellus, UniProt Q9JI35).
T1 construct: The source of the H3 receptors in this experiment was guinea pig brain; from tissue; host or cells: guinea pig brain membranes
Description: Guinea pig H3 receptor binding assay. The conditions noted are these: guinea pig brain membranes; [3H]R-α-methyl histamine or [3H]Nα-methyl histamine; range stated for a group of compounds. The method, then:
The source of the H3 receptors in this experiment was guinea pig brain obtained from animals weighing 400-600 g. The brain tissue was homogenized with a solution of 50 mM Tris, pH 7.5. The final concentration of tissue in the homogenization buffer was 10% w/v. The homogenates were centrifuged at 1,000×g for 10 minutes in order to remove clumps of tissue and debris. The resulting supernatants were then centrifuged at 50,000×g for 20 minutes in order to sediment the membranes, which were then washed three times in homogenization buffer (50,000×g for 20 minutes each). The membranes were frozen and stored at −70° C. until needed.
All compounds to be tested were dissolved in DMSO and then diluted into the binding buffer (50 mM Tris, pH 7.5) such that the final concentration was 2 μg/mL with 0.1% DMSO. Membranes were then added (400 μg of protein) to the reaction tubes. The reaction was started by the addition of 3 nM [^3H]R-α-methyl histamine (8.8 Ci/mmol) or 3 nM [^3H]N^α-methyl histamine (80 Ci/mmol) and continued under incubation at 30° C. for 30 minutes. Bound ligand was separated from unbound ligand by filtration, and the amount of radioactive ligand bound to the membranes was quantitated by liquid scintillation spectrometry. All incubations were performed in duplicate and the standard error was always less than 10%. Compounds that inhibited more than 70% of the specific binding of radioactive ligand to the receptor were serially diluted to determine a Ki (nM).

For series [2], the target named is T2, human histamine H3 receptor (Homo sapiens, UniProt Q9Y5N1).
T2 construct: The full-length human histamine H3 receptor was cloned by PCR; expressed in transfected cells
T2 sequence (Q9Y5N1 whole entry): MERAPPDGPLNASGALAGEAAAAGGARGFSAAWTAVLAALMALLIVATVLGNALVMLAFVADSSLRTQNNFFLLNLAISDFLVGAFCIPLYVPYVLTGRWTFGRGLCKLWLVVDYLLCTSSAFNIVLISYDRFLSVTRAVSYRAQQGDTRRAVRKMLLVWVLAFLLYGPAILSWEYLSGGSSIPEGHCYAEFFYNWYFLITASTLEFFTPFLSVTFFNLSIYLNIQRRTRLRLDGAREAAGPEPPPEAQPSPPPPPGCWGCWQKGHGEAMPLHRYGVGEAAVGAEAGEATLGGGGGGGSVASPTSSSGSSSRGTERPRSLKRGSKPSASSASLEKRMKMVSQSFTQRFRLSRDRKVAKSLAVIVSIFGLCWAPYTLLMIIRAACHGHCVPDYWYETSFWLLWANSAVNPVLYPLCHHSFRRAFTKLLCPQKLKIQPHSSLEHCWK
Kind of series: Human H3 receptor binding assay. The conditions noted are these: HEK-293 membranes expressing human H3; 1 nM [3H]N-α-methylhistamine; n=4. How it is done: The full-length human histamine H3 receptor was cloned by PCR from a human thalamus cDNA library, with primers derived from a public database, and inserted into the CMV promoter-driven expression vector pcDNA-3.1 (Invitrogen). HEK-293 human embryonic kidney cells (ATCC) were transfected with H3 receptor plasmid and stably expressing cells were selected with G-418. Cells were grown in Dulbecco's modified Eagle's medium/10% fetal calf serum containing high glucose, 25 mM Hepes, penicillin (100 U/ml), streptomycin (100 ug/ml), 2 mM glutamine, and 0.5 mg G-418/ml at 37° C. in a humidified atmosphere of 5% CO2. For membrane preparations, cells were harvested using aspirating media, replacing it with 5 mM EDTA/0.02% trypsin/Hank's balanced salt solution, followed by incubation at 37° C. for 5 to 10 minutes. […] Nonspecific binding was determined in the presence of 10^-5 M thioperamide. After a 30 minute incubation at 30° C., assay mixtures were filtered through 0.3% polyethylenimine-soaked GF/B glass fiber filters, which were then rinsed thrice with buffer, dried, impregnated with Meltilex wax scintillant, and counted. IC50 values were determined from curves fit to the data using a non-linear, least-squares, curve-fitting program and Ki values were determined using the method of Cheng and Prusoff.

The test system of series [3] is STZ-DIO Sprague-Dawley rats (T2DM). Description: In vivo effect on glucose and HbA1c in STZ-DIO diabetic rats. Further details: species or system rat. The following applies: two weeks. The method, then: Seventy male DIO Sprague-Dawley rats were fed HFD (45% Kcal fat) for 3 months from weaning, and were given streptozotocin (STZ) intraperitoneally at 25 mg/kg to induce type 2 diabetes (T2DM). Forty four T2DM rats were chosen for the study two weeks after STZ injection (n=11 per group, with body weights between 632 and 838 g, non-fasting glucose between 226 and 426 mg/dl and HbA1c between 8.7% and 10.9%) and were given ad libitum access to pre-weighed 45% fat (kcal) HFD or Compound 287 (1.4, 2.9 mg/g in HFD) for two weeks. Body weight, non-fasting glucose and food intake were monitored daily. Body composition and HbA1c levels were monitored before and after the two-week study by the whole body magnetic resonance analyzer and Cholestech GDX analyzer (Hayward, Calif.), respectively. The STZ-DIO rats had elevated non-fasting glucose and HbA1c levels (non-fasting glucose were between 226 and 426 mg/dl; and HbA1c were between 8.7% and 10.9%) two weeks after STZ injection. The low dose of STZ caused a 48% reduction of plasma insulin levels, which was not sufficient to cause hyperglycemia in rats fed with chow diet. In contrast, this level of plasma insulin induced hyperglycemia in the face of insulin resistance induced by the HFD. […] The control STZ-DIO rats maintained non-fasting glucose levels above […] (+12 mg/dl), which led to a significant 0.96% increase in HbA1c over 14 days.

The subject of series [4] is STZ-induced type 2 diabetic mice. Kind of series: In vivo effect on glucose levels in diabetic mice (western diet + low dose STZ). On the set-up: species or system mouse. The conditions noted are these: 10 mg/kg/day in diet, four weeks; relative to control mice and mice treated with rosiglitazone (5 mg/kg/day in diet). How it is done:
Five-week-old male ICR mice were purchased from Taconic Farm (Germantown, N.Y.) and placed on a “western diet” containing 45% (kcal) fat from lard and 0.12% (w/w) cholesterol. After 3 weeks of feeding, the mice were injected once with low dose streptozocin (STZ, ip 80 mg/kg) to induce partial insulin deficiency. […] The diabetic mice were then placed in one of three groups: (1) a non-treated control group, (2) a group treated with rosiglitazone (5 mg/kg/day in diet); or (3) a group treated with Compound 446 (10/mg/kg/day in diet). All animals were treated for four weeks.

Series [5] concerns diabetic Goto-Kakizaki rats. Description: In vivo effect on glucose levels in diabetic Goto-Kakizaki rats. On the set-up: species or system rat. The following applies: 10 mg/kg/day in food chow, one week; untreated rats 34 mg/dl. How it is done:
Adult, diabetic, Goto-Kakizaki rats (14 weeks old) were tested for non-fasting glucose levels using a glucometer. Rats with glucose levels between 130 and 370 mg/dl were randomized into treatment (N=10) and control (N=10) groups. Animals in the treatment group were administered Compound 446 in their food chow at a dose of 10 mg/kg/day. After one week of treatment, blood was collected via tail snip and the non-fasting glucose level was measured using a glucometer.

Structures can show the parent of a compound that is named as a salt.

T1 sequence (Q9JI35 whole entry): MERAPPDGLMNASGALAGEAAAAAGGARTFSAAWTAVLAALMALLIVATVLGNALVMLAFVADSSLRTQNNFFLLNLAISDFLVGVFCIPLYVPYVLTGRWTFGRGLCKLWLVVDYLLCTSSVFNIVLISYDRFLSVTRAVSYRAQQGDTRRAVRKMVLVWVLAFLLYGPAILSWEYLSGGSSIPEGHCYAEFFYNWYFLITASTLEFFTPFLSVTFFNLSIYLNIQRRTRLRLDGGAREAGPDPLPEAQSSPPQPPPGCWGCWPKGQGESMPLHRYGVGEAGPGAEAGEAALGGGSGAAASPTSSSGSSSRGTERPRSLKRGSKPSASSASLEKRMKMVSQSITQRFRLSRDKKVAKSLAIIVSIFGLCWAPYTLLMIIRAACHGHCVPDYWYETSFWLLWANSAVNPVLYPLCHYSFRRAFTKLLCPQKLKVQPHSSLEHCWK

The term melting point denotes the temperature, or range, at which the solid turns liquid. `CON=C(CC1CCN(C(=O)C2CCN(Cc3ccnc(N)c3)CC2)CC1)c1ccccn1` (as salt: maleate) [Compound 117] displayed a melting point of 160 to 163 °C.
Broadly, the Ki is a measure of affinity in units of concentration, obtained from inhibition or displacement. The low end stands for tighter binding, the high end for weaker binding. The molecule `Nc1cc(CN2CCC(C(=O)N3CCC(C(=O)c4ccccn4)CC3)CC2)ccn1` [Compound 30] had an inhibition constant Ki in series [1] of 0.83 to 16 nM.
In series [1], `CON=C(c1ccccn1)C1CCN(C(=O)C2CCN(Cc3ccnc(N)c3)CC2)CC1` [Compound 31] displayed a Ki of 0.83 to 16 nM.
On to `CO/N=C(/c1ccccn1)C1CCN(C(=O)C2CCN(Cc3ccnc(N)c3)CC2)CC1` [Compound 32], for which the Ki in series [1] is 0.83 to 16 nM.
In turn, `CO/N=C(\c1ccccn1)C1CCN(C(=O)C2CCN(Cc3ccnc(N)c3)CC2)CC1` [Compound 33] showed a Ki in series [1] of 0.83 to 16 nM.
The same measure, in the same setting: the same measure for `CO/N=C(/c1ccccn1)C1CCN(C(=O)C2CCN([C@@H](C)c3ccnc(N)c3)CC2)CC1` [Compound 54]: 0.83 to 16 nM; for `CO/N=C(/c1ccccn1)C1CCN(C(=O)C2CCN([C@H](C)c3ccnc(N)c3)CC2)CC1` [Compound 55]: 0.83 to 16 nM; for `CO/N=C(\c1ccccn1)C1CCN(C(=O)C2CCN([C@@H](C)c3ccnc(N)c3)CC2)CC1` [Compound 56]: 0.83 to 16 nM.
The same measure, in the same setting: to `CO/N=C(/c1ccc(Cl)cc1)C1CCN(C(=O)C2CCN(Cc3ccnc(N)c3)CC2)CC1` [Compound 225] belongs 0.83 to 16 nM.
Take `Nc1cc(CN2CCC(C(=O)N3CCC(C(=NO)c4ccccn4)CC3)CC2)ccn1` [Compound 237]: the inhibition constant (Ki) in series [1] lay within 0.83 to 16 nM.
For the molecule `CO/N=C(/c1ccc(Cl)cc1)C1CCN(C(=O)C2CCN(Cc3ccncc3)CC2)CC1` [Compound 273], the inhibition constant Ki in series [1] is 0.83 to 16 nM.
The molecule `CON=C(c1ccc(Cl)cc1)C1CCN(C(=O)C2CCN(Cc3ccnc(N)c3)CC2)CC1` [Compound 280] registered a Ki in series [1] of 0.83 to 16 nM.
`CO/N=C(/c1ccccn1)C1CCN(C(=O)C2CCN(Cc3cnc(N)nc3)CC2)CC1` [Compound 287] displayed a Ki in series [2] of 25 ± 4 nM. Further, the “decrease in HbA1c level” value in series [3] (68 mg/kg/day, 2.9 mg/g in HFD, control 0.96% increase) is on record as 0.6%. Moreover, the “change in non-fasting glucose” value in series [3] (68 mg/kg/day, 2.9 mg/g in HFD, control +12 mg/dl) is -43 mg/dL. Moreover, in series [3] (1.4, 2.9 mg/g in HFD), the “HbA1c levels over the two week study period” value is listed as “dose-dependent reduction”.
On to `CO/N=C(/c1ccccn1)C1CCN(C(=O)C2(F)CCN(Cc3ccnc(N)c3)CC2)CC1` [Compound 446], for which, in series [4], the HbA1C levels entry is listed as “significantly reduced” and the non-fasting glucose levels result is on record as “significantly reduced”. For the same molecule, in series [5], the “average reduction in non-fasting glucose levels” value was determined as 81 mg/dL.
